Target: Cloudman S91
Assay: Tyrosinase activity in vitro (release of tritiated water from 3,5-3H-tyrosine)
Format: cell-based
Conditions: molar concentration giving a response equal to half the maximum; tyrosinase activity relative to melanotropin-free control; Cloudman S91 monolayers, 24 h + further 24 h with 3,5-³H-tyrosine; read-out: EC₅₀
Description: Cloudman S91 were grown in monolayers to a density of approximately 25,000 cells cm⁻² in 25cm² culture flasks using 4 ml Ham's F10 medium supplemented with 10% heat inactivated foetal calf serum. The medium was replaced and 10⁻⁵ and 10⁻⁹ molar concentrations of the test or control compound added. After 24 h, medium and melantropins were renewed and 1»Ci, 3,5-³H-tyrosine included. The final specific activity of 3,5-³H-tyrosine incubation medium was 0.1 Ci/mmol.
After a further 24h, 0.2ml of the medium from each incubation were transferred to centrifuge tubes containing 1ml activated charcoal suspension (100 mg/ml in 0.1M citric acid). The tubes were vortexed and centrifuged at 700 x g for 5 min. Aliquots (0.5 ml) of each supernatant were transferred to scintillation vials and counted on a Packard Tri-Carb 300D scintillation counter. Aliquots (0.1ml) of the unextracted medium were also counted. Finally, the remaining medium was removed and the cell monolayer suspended in 1ml isotonic trypsin/EDTA. The dispersed cells were counted in a Coulter counter.
The amount of water generated from the tyrosine per 10⁵ cells was calculated and the results divided by the value obtained from the melanotropin-free control. The activities of the melanotropins were expressed as the molar concentrations required to give responses equal to half the maximum (EC₅₀) and are recorded in Table 1.

| EC50 [nM] | Compound |
| --- | --- |
| 0.74 | CCCC[C@H](NC(C)=O)C(=O)N[C@@H](CC(=O)O)C(=O)N[C@@H](Cc1c[nH]cn1)C(=O)N[C@H](Cc1ccccc1)C(=O)N[C@@H](CCCNC(=N)N)C(=O)N[C@@H](Cc1c[nH]c2ccccc12)C(=O)N[C@@H](CCCCN)C(N)=O [MSH(4-10), Ac-[Nle⁴, Asp⁵, D-Phe⁷, Lys¹⁰] α-MSH₄₋₁₀-NH₂] |
| 2.81 | alpha-melanocyte stimulating hormone [MSH] |
